From the supplement of paper PMC10307832

How the values were obtained:
Assay in all cases: relative viability (nuclei count vs DMSO), 5 days (fraction); higher = more cells survive
[1] = compound: C1/C(=C\C2=CC=CS2)/C(=O)/C(=C/C3=CC=CS3)/C1
How it was run: (§1)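 Five library-drug doses spaced by √10 were pinned onto vehicle-anchored 1536-well plates of lung cancer cell lines that had been kept overnight at 37 °C. Cells went 5 days without medium change, then were fixed, permeabilised and Hoechst-stained together, imaged at 4× and counted by MetaXpress. Viability is the ratio of treated-well to vehicle-well nuclei, taken as a median over plates. Plates required control CV below 25% and at least one doubling.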

TPCA-1 = compound: C1=CC(=CC=C1C2=CC(=C(S2)NC(=O)N)C(=O)N)F [TPCA-1]
How it was run: as §1

Lestaurtinib = compound: C[C@]12O[C@H](C[C@]1(O)CO)n1c3ccccc3c3c4c(c5c6ccccc6n2c5c31)CNC4=O [Lestaurtinib]
How it was run: as §1

Lestaurtinib + Foretinib = compound: C[C@]12O[C@H](C[C@]1(O)CO)n1c3ccccc3c3c4c(c5c6ccccc6n2c5c31)CNC4=O [Lestaurtinib] + COc1cc2c(Oc3ccc(NC(=O)C4(C(=O)Nc5ccc(F)cc5)CC4)cc3F)ccnc2cc1OCCCN1CCOCC1 [Foretinib] (partner 0.25 µM)
How it was run: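 Lung cancer cell lines were pin-tool dosed in 1536-well plates on the day after seeding, with either a lone drug or a fixed anchor-drug dose plus five library-drug doses (not always all listed) in √10 steps. Nuclei were counted on 4× images after 5 days. Relative viability is the ratio of treated-well to vehicle-well nuclei counts, with each value a median of duplicate plates.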

| Cell Line | relative viability ([1]; 0.2 µM) | relative viability ([1]; 0.6325 µM) | relative viability ([1]; 2 µM) | relative viability ([1]; 6.325 µM) | relative viability ([1]; 20 µM) | relative viability (TPCA-1; 0.04 µM) | relative viability (TPCA-1; 0.1265 µM) | relative viability (TPCA-1; 0.4 µM) | relative viability (TPCA-1; 1.265 µM) | relative viability (TPCA-1; 4 µM) | relative viability (Lestaurtinib; 0.005 µM) | relative viability (Lestaurtinib; 0.01581 µM) | relative viability (Lestaurtinib; 0.05 µM) | relative viability (Lestaurtinib; 0.1581 µM) | relative viability (Lestaurtinib; 0.5 µM) | relative viability (Lestaurtinib + Foretinib; first compound 0.005 µM) | relative viability (Lestaurtinib + Foretinib; first compound 0.01581 µM) | relative viability (Lestaurtinib + Foretinib; first compound 0.05 µM) | relative viability (Lestaurtinib + Foretinib; first compound 0.1581 µM) | relative viability (Lestaurtinib + Foretinib; first compound 0.5 µM) |
| --- | --- | --- | --- | --- | --- | --- | --- | --- | --- | --- | --- | --- | --- | --- | --- | --- | --- | --- | --- | --- |
| LK-2 | 1.02 | 1 | 1.1 | 1.06 | 0.966 | 1.24 | 0.8 | 0.993 | 0.982 | 0.503 | 1.24 | 1.06 | 0.872 | 0.651 | 0.279 | 1.16 | 1.19 | 0.683 | 0.774 | 0.309 |
| NCI-H2023 | 1 | 1.04 | 1.07 | 0.827 | 0.837 | 1.16 | 0.946 | 1.13 | 0.85 | 0.509 | 1.02 | 0.978 | 0.874 | 0.746 | 0.201 | 1.02 | 0.758 | 0.843 | 1.01 | 0.164 |
| NCI-H596 | 1 | 0.994 | 1.11 | 0.85 | 0.964 | 1.09 | 0.978 | 1.05 | 1.17 | 0.842 | 1.02 | 0.889 | 0.872 | 1.06 | 1.02 | 0.724 | 0.946 | 0.82 | 1.1 | 0.671 |
| SK-MES-1 | 1.05 | 1.03 | 1.02 | 0.906 | 0.972 | 1.06 | 0.864 | 0.976 | 0.881 | 0.604 | 1.02 | 0.931 | 0.57 | 0.394 | 0.259 | 0.906 | 0.866 | 0.599 | 0.33 | 0.334 |
| NCI-H1793 | 0.962 | 0.953 | 1.1 | 0.856 | 0.87 | 1.1 | 0.718 | 1.08 | 0.954 | 0.279 | 0.949 | 0.986 | 0.657 | 0.828 | 0.723 | 0.684 | 0.702 | 0.436 | 0.574 | 0.39 |
| IA-LM | 1.04 | 1.01 | 0.905 | 0.91 | 0.94 | 1.1 | 0.923 | 0.963 | 0.812 | 0.903 | 1.11 | 1.42 | 1.28 | 1.21 | 0.557 | 1.37 | 1.4 | 1.53 | 1.22 | 0.59 |
| NCI-H2405 | 1.01 | 0.988 | 1.14 | 0.959 | 1.02 | 1.08 | 0.944 | 1.09 | 0.816 | 0.842 | 0.97 | 1.08 | 0.974 | 0.822 | 0.532 | 1.11 | 1.08 | 1.05 | 0.805 | 0.384 |
| A549 | 0.987 | 0.983 | 1.01 | 0.772 | 0.931 | 1.05 | 0.956 | 0.955 | 0.871 | 0.782 | 1.04 | 1 | 0.791 | 0.521 | 0.162 | 1.09 | 1.07 | 0.579 | 0.301 | 0.169 |
| LCLC-103H | 1.04 | 1.02 | 1.09 | 0.87 | 0.986 | 1.1 | 0.933 | 1.06 | 0.941 | 1.02 | 1.1 | 1.08 | 0.937 | 0.693 | 0.519 | 0.752 | 0.848 | 0.547 | 0.485 | 0.261 |
| NCI-H460 | 1.05 | 1.01 | 1.05 | 0.823 | 0.971 | 1.03 | 0.984 | 1.01 | 1.04 | 0.889 | 1.08 | 1.09 | 1.04 | 1.08 | 0.836 | 0.96 | 1.11 | 0.951 | 1.28 | 0.9 |
| NCI-H1755 | 1.02 | 0.987 | 1.04 | 0.807 | 0.999 | 0.951 | 0.941 | 1.01 | 0.922 | 0.765 | 1.02 | 1.05 | 0.965 | 0.736 | 0.351 | 0.891 | 0.938 | 0.788 | 0.494 | 0.412 |
| NCI-H358 | 1.09 | 0.915 | 0.963 | 0.754 | 0.933 | 1.34 | 0.832 | 0.984 | 0.767 | 0.401 | 0.839 | 0.748 | 0.493 | 0.397 | 0.207 | 0.621 | 0.436 | 0.358 | 0.201 | 0.108 |
| NCI-H1734 | 1.02 | 1.01 | 1.03 | 0.891 | 0.984 | 1.17 | 0.848 | 1.1 | 1.03 | 0.553 | 0.993 | 0.956 | 0.66 | 0.563 | 0.262 | 0.891 | 0.951 | 0.705 | 0.383 | 0.179 |
| EPLC-272H | 1.13 | 0.925 | 1.01 | 0.833 | 0.786 | 1.06 | 0.881 | 1.12 | 0.805 | 0.676 | 0.801 | 0.748 | 0.607 | 0.444 | 0.304 | 0.542 | 0.538 | 0.282 | 0.325 | 0.126 |
| NCI-H2126 | 1.03 | 1.01 | 1.07 | 0.896 | 0.979 | 0.997 | 0.918 | 1.01 | 0.89 | 0.809 | 1.02 | 1.1 | 0.891 | 0.842 | 0.729 | 1.19 | 1.31 | 1.1 | 1.1 | 0.926 |
